From ChEMBL document CHEMBL5576074, “[1,2,4]Triazolo[1,5-a]pyrimidine derivatives: Structure-activity relationship study leading to highly selective ENPP1 inhibitors” (Bioorg Med Chem Lett, 2024) come the findings set out here.

The structures appear in SMILES notation. A value given as a limit tells only on which side of the number the result lay.

Data set [1] concerns the target T1, Ectonucleotide pyrophosphatase/phosphodiesterase family member 3 (Homo sapiens) (UniProt O14638).
T1 sequence (whole entry): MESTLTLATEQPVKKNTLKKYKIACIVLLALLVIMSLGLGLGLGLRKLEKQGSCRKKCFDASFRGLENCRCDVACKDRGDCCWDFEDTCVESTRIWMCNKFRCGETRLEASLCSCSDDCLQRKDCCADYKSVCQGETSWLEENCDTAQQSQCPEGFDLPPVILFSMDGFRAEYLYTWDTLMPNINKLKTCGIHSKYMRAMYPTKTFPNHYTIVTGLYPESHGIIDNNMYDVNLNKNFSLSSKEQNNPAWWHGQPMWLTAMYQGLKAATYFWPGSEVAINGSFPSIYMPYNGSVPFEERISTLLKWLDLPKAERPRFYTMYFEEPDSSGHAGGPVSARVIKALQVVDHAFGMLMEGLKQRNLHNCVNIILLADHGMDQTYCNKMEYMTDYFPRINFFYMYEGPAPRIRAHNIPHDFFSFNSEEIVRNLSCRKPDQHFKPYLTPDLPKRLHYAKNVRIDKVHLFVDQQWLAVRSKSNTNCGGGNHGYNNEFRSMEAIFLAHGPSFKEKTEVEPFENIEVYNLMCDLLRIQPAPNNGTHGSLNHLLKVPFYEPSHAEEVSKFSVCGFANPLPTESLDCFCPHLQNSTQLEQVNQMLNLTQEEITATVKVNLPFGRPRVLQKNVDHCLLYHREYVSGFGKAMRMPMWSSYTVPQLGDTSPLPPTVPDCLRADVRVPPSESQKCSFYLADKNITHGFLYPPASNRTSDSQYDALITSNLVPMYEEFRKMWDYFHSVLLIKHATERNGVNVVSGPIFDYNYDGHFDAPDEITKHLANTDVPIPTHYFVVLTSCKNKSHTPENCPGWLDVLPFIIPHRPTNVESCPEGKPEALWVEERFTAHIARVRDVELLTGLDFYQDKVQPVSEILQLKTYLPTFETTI
In words: Inhibition of ENPP3 (unknown origin) at 10 uM relative to control.

The target in data set [2] is T2, Ectonucleotide pyrophosphatase/phosphodiesterase family member 3 (Homo sapiens, UniProt O14638).
T2 sequence (O14638 whole entry): T1 sequence (whole entry)
In words: Inhibition of ENPP3 (unknown origin) assessed as reduction in ATP hydrolysis by AMP-Glo assay.

For data set [3], the target named is T3, Ectonucleotide pyrophosphatase/phosphodiesterase family member 1 (Homo sapiens, UniProt P22413).
T3 sequence (P22413 whole entry): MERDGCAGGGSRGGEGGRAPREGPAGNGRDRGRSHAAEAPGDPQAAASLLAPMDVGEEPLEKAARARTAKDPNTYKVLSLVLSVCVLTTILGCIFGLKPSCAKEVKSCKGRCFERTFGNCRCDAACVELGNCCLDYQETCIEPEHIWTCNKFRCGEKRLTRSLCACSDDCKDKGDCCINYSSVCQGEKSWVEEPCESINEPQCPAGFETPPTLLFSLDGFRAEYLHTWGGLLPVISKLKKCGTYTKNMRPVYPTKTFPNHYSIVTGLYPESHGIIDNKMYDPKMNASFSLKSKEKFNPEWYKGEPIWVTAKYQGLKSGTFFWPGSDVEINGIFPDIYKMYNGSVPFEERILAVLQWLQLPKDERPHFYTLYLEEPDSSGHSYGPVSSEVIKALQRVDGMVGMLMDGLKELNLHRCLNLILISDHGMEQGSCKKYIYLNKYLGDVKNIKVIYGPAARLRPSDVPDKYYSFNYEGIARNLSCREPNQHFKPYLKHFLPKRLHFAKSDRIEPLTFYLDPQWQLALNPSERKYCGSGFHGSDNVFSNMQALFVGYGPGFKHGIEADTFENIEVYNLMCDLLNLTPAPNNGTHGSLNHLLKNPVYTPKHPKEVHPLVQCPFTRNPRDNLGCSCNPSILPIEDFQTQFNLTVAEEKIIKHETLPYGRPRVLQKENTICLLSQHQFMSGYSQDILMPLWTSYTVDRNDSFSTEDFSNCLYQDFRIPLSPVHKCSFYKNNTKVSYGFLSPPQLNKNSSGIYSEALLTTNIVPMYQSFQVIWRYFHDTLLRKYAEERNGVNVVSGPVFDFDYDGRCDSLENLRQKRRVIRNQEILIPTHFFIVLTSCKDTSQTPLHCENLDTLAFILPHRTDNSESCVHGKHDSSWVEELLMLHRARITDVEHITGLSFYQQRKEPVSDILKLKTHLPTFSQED
In words: Inhibition of ENPP1 (unknown origin) assessed as reduction in ATP hydrolysis by AMP-Glo assay.

Data set [4] deals with T2, Ectonucleotide pyrophosphatase/phosphodiesterase family member 3. In words: Inhibition of ENPP3 (unknown origin).
The nature of data set [5]: Cytotoxicity against human HepG2-Dual cells upto 50 uM. It is filed as toxicity, cell-based. Particulars: hepg2, 50 µM.
The target of data set [6] is T2, Ectonucleotide pyrophosphatase/phosphodiesterase family member 3. In words: Inhibition of ENPP3 (unknown origin) assessed as reduction in 2'3'-cGAMP hydrolysis by AMP-Glo assay.
The target in data set [7] is T1, Ectonucleotide pyrophosphatase/phosphodiesterase family member 3 (Homo sapiens). Kind of data set: Inhibition of ENPP3 (unknown origin) assessed as reduction in ATP hydrolysis at 50 uM by AMP-Glo assay relative to control.
The target is the same in data set [8]. Kind of data set: Inhibition of ENPP3 (unknown origin) at 50 uM relative to control.
The target in data set [9] is T4, Autotaxin (Homo sapiens, UniProt Q13822). Kind of data set: Inhibition of ENPP2 (unknown origin).
The target in data set [10] is T4, Autotaxin. Kind of data set: Inhibition of ENPP2 (unknown origin) at 50 uM relative to control.
The target of data set [11] is T5, Glycerophosphocholine cholinephosphodiesterase ENPP6 (Homo sapiens, UniProt Q6UWR7).
T5 sequence (Q6UWR7 whole entry): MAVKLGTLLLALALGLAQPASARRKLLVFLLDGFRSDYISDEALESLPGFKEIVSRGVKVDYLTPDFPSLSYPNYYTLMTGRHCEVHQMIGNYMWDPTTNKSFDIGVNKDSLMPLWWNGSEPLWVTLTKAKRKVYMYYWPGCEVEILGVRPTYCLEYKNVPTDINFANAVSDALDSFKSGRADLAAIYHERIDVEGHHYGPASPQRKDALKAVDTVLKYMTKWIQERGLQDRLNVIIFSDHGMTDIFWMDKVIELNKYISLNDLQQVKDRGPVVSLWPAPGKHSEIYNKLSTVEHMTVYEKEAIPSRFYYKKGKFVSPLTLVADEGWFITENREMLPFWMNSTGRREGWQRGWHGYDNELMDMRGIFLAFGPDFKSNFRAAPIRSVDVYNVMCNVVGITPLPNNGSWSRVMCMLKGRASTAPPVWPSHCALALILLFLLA
In words: Inhibition of ENPP6 (unknown origin).

Data set [12] concerns the target T3, Ectonucleotide pyrophosphatase/phosphodiesterase family member 1. Kind of data set: Inhibition of ENPP1 (unknown origin).
Data set [13] relates to THP1-Dual. Kind of data set: Cytotoxicity against human THP1-Dual cells upto 50 uM. It is filed as toxicity, cell-based.
The target in data set [14] is T3, Ectonucleotide pyrophosphatase/phosphodiesterase family member 1. Kind of data set: Inhibition of ENPP1 (unknown origin) assessed as reduction in 2'3'-cGAMP hydrolysis by AMP-Glo assay.
The target in data set [15] is T6, Glycerophosphocholine cholinephosphodiesterase ENPP6 (Homo sapiens) (UniProt Q6UWR7).
T6 sequence (whole entry): T5 sequence (Q6UWR7 whole entry)
Kind of data set: Inhibition of ENPP6 (unknown origin) at 50 uM relative to control.

Data set [16] has as its target T1, Ectonucleotide pyrophosphatase/phosphodiesterase family member 3 (Homo sapiens). In words: Inhibition of ENPP3 (unknown origin) assessed as reduction in 2'3'-cGAMP hydrolysis at 50 uM by AMP-Glo assay relative to control.

The term inhibition denotes the change of the read-out against control, counted positive when it falls. `Cc1nc2ncnn2c(N2CCC(C)CC2)c1Cc1ccccc1` displayed an inhibition in data set [1] of 2%.
As usually defined, the IC50 is the concentration that gives 50% inhibition. For the molecule `Cc1nc2ncnn2c(N(C)C)c1Cc1cccc(O)c1`, the half-inhibitory concentration (IC50) is over 50 µM in data set [2]; 1.8 µM in data set [3]; over 50 µM in data set [4]; over 50 µM in data set [6]; over 50 µM in data set [9]; over 50 µM in data set [11]. Further, the IC50 turned out to be 0.42 µM in data set [12] and 1.4 µM in data set [14]. The Activity entry in data set [5] and in data set [13] was “Non-Toxic” each time. The inhibition in data set [7] was under 1%; in [8] it was 24%; in data set [10], 31%; in data set [15], under 1%; in data set [16], under 1%.
Turning to `Cc1nc2ncnn2c(N(C)C)c1Cc1ccccc1`, the IC50 in data set [2] was over 50 µM; in data set [4] it was over 50 µM; in data set [6] it was over 50 µM; in data set [9], over 50 µM; in data set [11], over 50 µM; in [12], 0.74 µM. The inhibition in [7] was 7.5%; in data set [8], 6.3%; in [10], 31%; in data set [15], under 1%; in data set [16], under 1%; in data set [1], 19%.
In data set [1], `Cc1nc2ncnn2c(N2CCCC2)c1Cc1ccccc1` gave an inhibition of 16%.
As to `Cc1nc2ncnn2c(N2CCCCC2)c1Cc1ccccc1`, the inhibition in data set [1] came out at 1%.
Still for that read-out and setting: the result for `CCc1nc2ncnn2c(N(CC)Cc2ccccc2)c1Cc1ccccc1` reads 2%.
Turning to `Cc1nc2ncnn2c(NCc2ccc(C(=O)O)cc2)c1Cc1cccc(N)c1`, the IC50 was over 50 µM in [2]; 8.6 µM in data set [3]; over 50 µM in [4]; over 50 µM in data set [6]; over 50 µM in data set [9]; over 50 µM in [11]. In addition, the IC50 in [12] is 1.1 µM; in data set [14] it was 9 µM. Besides, the Activity result in data set [5] and in [13] was “Non-Toxic” throughout. Further, the inhibition was 1.6% in data set [7]; 33% in [8]; 8.9% in data set [10]; under 1% in [15]; under 1% in [16].
`Cc1nc2ncnn2c(N(C)C)c1Cc1cccc(N)c1`: the IC50 is over 50 µM in data set [2]; 0.85 µM in data set [3]; over 50 µM in data set [4]; over 50 µM in data set [6]; over 50 µM in data set [9]; over 50 µM in data set [11]. Moreover, the IC50 in [12] came to 0.26 µM; in data set [14], 0.82 µM. The Activity result in [5] and in data set [13] was “Non-Toxic” each time. Moreover, the inhibition in [7] was 4.2%; in data set [8] it was 24%; in data set [10], 11%; in data set [15], under 1%; in data set [16], 2.2%.
Consider `COc1ccc(Cc2c(C)nc3ncnn3c2N(C)C)cc1OC`, for which the IC50 is over 50 µM in [4], over 50 µM in data set [9], over 50 µM in data set [11] and 1.3 µM in [12]. Moreover, the figures for the inhibition in data set [8], in [10] and in data set [15] were 4.6%, 6.8% and under 1%, respectively.
Turning to `COCCNc1c(Cc2ccccc2)c(C)nc2ncnn12`, the IC50 in [4] is over 50 µM; in data set [9], over 50 µM; in [11], over 50 µM; in data set [12] it was over 30 µM. The inhibition is 3.3% in [8], under 1% in data set [10] and under 1% in data set [15].
The molecule `Cc1nc2ncnn2c(N2CCCCCC2)c1Cc1ccccc1` returned an inhibition in [1] of 5%.
Regarding `Cc1nc2ncnn2c(N(C)C)c1Cc1ccc(N)cc1`, the IC50 in data set [4] was over 50 µM; in [9], over 50 µM; in data set [11], over 50 µM; in data set [12] it was 0.47 µM. Moreover, the figures for the inhibition in [8], in [10] and in data set [15] were 12%, 7.7% and under 1%, respectively.
